Several values for one entry are separate records, joined by “and”; a condition that tells them apart may be missing. Equal entries are not always repeated.
Test system: 349418-098-R-PDC spheroids, viability, % test/control
Test: Anticancer human tumor 349418-098-R-PDC patient-derived lung adenocarcinoma cell line growth inhibition [IpAb]
Details: spheroids with HUVEC and MSC; for viability, T/C: stronger effect = lower value
How it was run: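 Spheroids of 60% malignant cells, 25% HUVEC and 15% MSC were exposed to targeted agents combined with ipatasertib or abemaciclib. Doses started at or near clinical Cmax (10 microM when unknown) and fell in half-log steps.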

[1] = curve of first compound, second compound 0.1 µM
[2] = curve of first compound, second compound 0.316 µM
[3] = curve of first compound, second compound 1 µM
[4] = second compound 0.1 µM, first compound 0.0316 µM
[5] = second compound 0.1 µM, first compound 0.1 µM
[6] = second compound 0.1 µM, first compound 0.316 µM
[7] = second compound 0.1 µM, first compound 1 µM
[8] = second compound 0.1 µM, first compound 3.16 µM
[9] = second compound 0.1 µM, first compound 10 µM
[10] = second compound 0.316 µM, first compound 0.0316 µM
[11] = second compound 0.316 µM, first compound 0.1 µM
[12] = second compound 0.316 µM, first compound 0.316 µM
[13] = second compound 0.316 µM, first compound 1 µM
[14] = second compound 0.316 µM, first compound 3.16 µM
[15] = second compound 0.316 µM, first compound 10 µM
[16] = second compound 1 µM, first compound 0.0316 µM
[17] = second compound 1 µM, first compound 0.1 µM
[18] = second compound 1 µM, first compound 0.316 µM
[19] = second compound 1 µM, first compound 1 µM
[20] = second compound 1 µM, first compound 3.16 µM
[21] = second compound 1 µM, first compound 10 µM
[22] = curve of first compound, second compound 0.01 µM
[23] = curve of first compound, second compound 0.0316 µM
[24] = second compound 0.01 µM, first compound 0.0316 µM
[25] = second compound 0.01 µM, first compound 0.1 µM
[26] = second compound 0.0316 µM, first compound 0.0316 µM
[27] = second compound 0.0316 µM, first compound 0.1 µM

SMILES: Cn1ncc(Cl)c1-c1cc(C(=O)NC(CN)Cc2cccc(F)c2)sc1Cl (stereo not given) + CC(C)NCC(C(=O)N1CCN(c2ncnc3c2C(C)CC3O)CC1)c1ccc(Cl)cc1
- IC50 [1]: 90.8 nM
- IC50 [2]: < 31.6 nM
- IC50 [3]: < 31.6 nM
- IC50 (curve of first compound, second compound 3.16 µM): < 31.6 nM
- IC50 (curve of first compound, second compound 10 µM): < 31.6 nM
- viability, T/C [4]: 79.5%
- viability, T/C [5]: 45.1%
- viability, T/C [6]: 29.4%
- viability, T/C [7]: 12.3%
- viability, T/C [8]: 6.88%
- viability, T/C [9]: 0.08%
- viability, T/C [10]: 49.7%
- viability, T/C [11]: 31.8%
- viability, T/C [12]: 25.3%
- viability, T/C [13]: 12.1%
- viability, T/C [14]: 7.48%
- viability, T/C [15]: 0.08%
- viability, T/C [16]: 23.2%
- viability, T/C [17]: 22.2%
- viability, T/C [18]: 15.9%
- viability, T/C [19]: 10.1%
- viability, T/C [20]: 6.54%
- viability, T/C [21]: 0.08%
- viability, T/C (second compound 3.16 µM, first compound 0.0316 µM): 15.3%
- viability, T/C (second compound 3.16 µM, first compound 0.1 µM): 12.2%
- viability, T/C (second compound 3.16 µM, first compound 0.316 µM): 10.8%
- viability, T/C (second compound 3.16 µM, first compound 1 µM): 8.53%
- viability, T/C (second compound 3.16 µM, first compound 3.16 µM): 6.62%
- viability, T/C (second compound 3.16 µM, first compound 10 µM): 0.19%
- viability, T/C (second compound 10 µM, first compound 0.0316 µM): 7.77%
- viability, T/C (second compound 10 µM, first compound 0.1 µM): 8.14%
- viability, T/C (second compound 10 µM, first compound 0.316 µM): 7.56%
- viability, T/C (second compound 10 µM, first compound 1 µM): 6.63%
- viability, T/C (second compound 10 µM, first compound 3.16 µM): 5.87%
- viability, T/C (second compound 10 µM, first compound 10 µM): 0.18%

SMILES: Cn1ncc(Cl)c1-c1cc(C(=O)NC(CN)Cc2cccc(F)c2)sc1Cl (stereo not given) + CCN1CCN(Cc2ccc(Nc3ncc(F)c(-c4cc(F)c5nc(C)n(C(C)C)c5c4)n3)nc2)CC1
- IC50 [22]: 49.8 nM
- IC50 [23]: < 31.6 nM
- IC50 [1]: < 31.6 nM
- IC50 [2]: < 31.6 nM
- IC50 [3]: < 31.6 nM
- viability, T/C [24]: 63.1%
- viability, T/C [25]: 28.6%
- viability, T/C (second compound 0.01 µM, first compound 0.316 µM): 17.1%
- viability, T/C (second compound 0.01 µM, first compound 1 µM): 9.53%
- viability, T/C (second compound 0.01 µM, first compound 3.16 µM): 6.15%
- viability, T/C (second compound 0.01 µM, first compound 10 µM): 0.1%
- viability, T/C [26]: 36.9%
- viability, T/C [27]: 18.1%
- viability, T/C (second compound 0.0316 µM, first compound 0.316 µM): 9.18%
- viability, T/C (second compound 0.0316 µM, first compound 1 µM): 7.63%
- viability, T/C (second compound 0.0316 µM, first compound 3.16 µM): 5.83%
- viability, T/C (second compound 0.0316 µM, first compound 10 µM): 0.14%
- viability, T/C [4]: 21.3%
- viability, T/C [5]: 12.5%
- viability, T/C [6]: 8.7%
- viability, T/C [7]: 6.91%
- viability, T/C [8]: 5.88%
- viability, T/C [9]: 0.09%
- viability, T/C [10]: 16%
- viability, T/C [11]: 12.5%
- viability, T/C [12]: 8.98%
- viability, T/C [13]: 6.46%
- viability, T/C [14]: 4.96%
- viability, T/C [15]: 0.19%
- viability, T/C [16]: 14%
- viability, T/C [17]: 11.7%
- viability, T/C [18]: 9.07%
- viability, T/C [19]: 8.54%
- viability, T/C [20]: 3.59%
- viability, T/C [21]: 0.24%

SMILES: Cn1ncc(Cl)c1-c1cc(C(=O)NC(CN)Cc2cccc(F)c2)sc1Cl (stereo not given)
- viability, T/C (compound 0.0316 µM): 90% and 71.9%
- viability, T/C (compound 0.1 µM): 64.6% and 67%
- viability, T/C (compound 0.316 µM): 43% and 30.5%
- viability, T/C (compound 1 µM): 10.9% and 16.7%
- viability, T/C (compound 3.16 µM): 7.08% and 7.12%
- viability, T/C (compound 10 µM): 0.13% and 0.32%
- IC50 (curve of compound): 200 nM and 169 nM

SMILES: Cn1cnc2c(F)c(Nc3ccc(Br)cc3Cl)c(C(=O)NOCCO)cc21
- viability, T/C (compound 0.00949 µM): 54.9% and 51.1%
- viability, T/C (compound 0.03 µM): 47.6% and 37.5%
- viability, T/C (compound 0.0949 µM): 49.2% and 43%
- viability, T/C (compound 0.3 µM): 58.2% and 42.2%
- viability, T/C (compound 0.949 µM): 37.5% and 27.2%
- viability, T/C (compound 3 µM): 12.6% and 11.1%

SMILES: CC(C)n1nc(-c2ccc3oc(N)nc3c2)c2c(N)ncnc21 + CCN1CCN(Cc2ccc(Nc3ncc(F)c(-c4cc(F)c5nc(C)n(C(C)C)c5c4)n3)nc2)CC1
- IC50 [22]: 0.659 nM
- IC50 [23]: < 0.316 nM
- IC50 [1]: < 0.316 nM
- IC50 [2]: < 0.316 nM
- IC50 [3]: < 0.316 nM
- viability, T/C (second compound 0.01 µM, first compound 0.000316 µM): 78.5%
- viability, T/C (second compound 0.01 µM, first compound 0.001 µM): 33.8%
- viability, T/C (second compound 0.01 µM, first compound 0.00316 µM): 13.3%
- viability, T/C (second compound 0.01 µM, first compound 0.01 µM): 8.46%
- viability, T/C [24]: 7.29%
- viability, T/C [25]: 6.79%
- viability, T/C (second compound 0.0316 µM, first compound 0.000316 µM): 38.4%
- viability, T/C (second compound 0.0316 µM, first compound 0.001 µM): 22.3%
- viability, T/C (second compound 0.0316 µM, first compound 0.00316 µM): 10.4%
- viability, T/C (second compound 0.0316 µM, first compound 0.01 µM): 6.7%
- viability, T/C [26]: 6.75%
- viability, T/C [27]: 6.38%
- viability, T/C (second compound 0.1 µM, first compound 0.000316 µM): 26.9%
- viability, T/C (second compound 0.1 µM, first compound 0.001 µM): 14.9%
- viability, T/C (second compound 0.1 µM, first compound 0.00316 µM): 10.1%
- viability, T/C (second compound 0.1 µM, first compound 0.01 µM): 7.85%
- viability, T/C [4]: 6.9%
- viability, T/C [5]: 6.67%
- viability, T/C (second compound 0.316 µM, first compound 0.000316 µM): 20.2%
- viability, T/C (second compound 0.316 µM, first compound 0.001 µM): 13.6%
- viability, T/C (second compound 0.316 µM, first compound 0.00316 µM): 9.36%
- viability, T/C (second compound 0.316 µM, first compound 0.01 µM): 7.22%
- viability, T/C [10]: 7.46%
- viability, T/C [11]: 6.4%
- viability, T/C (second compound 1 µM, first compound 0.000316 µM): 14.4%
- viability, T/C (second compound 1 µM, first compound 0.001 µM): 12.4%
- viability, T/C (second compound 1 µM, first compound 0.00316 µM): 8.8%
- viability, T/C (second compound 1 µM, first compound 0.01 µM): 7.28%
- viability, T/C [16]: 7.88%
- viability, T/C [17]: 6.96%

SMILES: C=CCn1c(=O)c2cnc(Nc3ccc(N4CCN(C)CC4)cc3)nc2n1-c1cccc(C(C)(C)O)n1
- viability, T/C (compound 0.0316 µM): 91.8% and 105%
- viability, T/C (compound 0.1 µM): 84.5% and 88.7%
- viability, T/C (compound 0.316 µM): 18.8% and 26.7%
- viability, T/C (compound 1 µM): 5.04% and 4.87%
- viability, T/C (compound 3.16 µM): 4.87% and 4.84%
- viability, T/C (compound 10 µM): 6.19% and 4.54%
- IC50 (curve of compound): 183 nM and 205 nM

SMILES: CC(C)NCC(C(=O)N1CCN(c2ncnc3c2C(C)CC3O)CC1)c1ccc(Cl)cc1 (stereo not given)
- viability, T/C (compound 0.1 µM): 84.9% [middle of 13 runs]
- viability, T/C (compound 1 µM): 24.5% [middle of 13 runs]
- viability, T/C (compound 3.16 µM): 11.8% [middle of 13 runs]
- viability, T/C (compound 10 µM): 7.07% [middle of 11 runs]
- IC50 (compound alone, run of 05/18/2021): 350 nM [middle of 13 runs]
